Measurements as given in patent US5919464A, “Treatment of aberrant cellular states with biomodulators” (University of New Mexico, priority 1993, dated 1999).
“Also recorded” adds a separate entry of the source.

Tests used:
canine glioma (CG) cells = test: NMR T-2* linewidth of canine glioma cells; type: cell-based
From the text: These measurements correlate with the status of the cell surface oligosaccharide display. When the GFE decreases, as in cellular senescence, the linewidth measurements decrease, indicating an increased frequency of motion of unfrozen water on the surface. […] Additional data which supports this phenomenological connection between linewidth changes and the functional surface organization include; t-butanol extraction results in uniform decreases in the linewidth; biomodulator treatment of PDL-35 IMR-90s prevents the linewidth changes observed with the senescent populations; and the correlation between the cell surface organization changes and the linewidth data. […] The cells used for all these experiments are between passage 30 and passage 75.
In the growth transformed population we use the term unregulated to distinguish the models. In this case the linewidth for the CG controls are much higher than the IMR-90 values and the re-regulation results in a lowering of these values, approaching the data for the IMR-90s.
The cell surface oligosaccharide display was assessed by methods developed previously. In brief, cells from a sub-culturing were aliquotted into 96 well trays at 5×10^5 cells per ml, 100 μL aliquots. After 16 hours of culture the cells were washed, fixed, and blocked with 0.1% BSA/PBS. Optimal lectin concentrations (5 μg/ml)were used to give 80 to 90% saturation of the available sites. Three carbohydrate ligands at 10 μg concentrations in triplicate or quadruplicate were then used to prepare competition curves for the lectin binding. The Bound over Free (B/F) ratio was calculated and the Ligand microprocessor program was used to determine the optimal fit of the data to a polynomial generated model. The Gibb's Free Energy (GFE) was calculated from the Scatchard data on the competition assay by the following equation: GFE=-RT ln Kequil. The proton NMR linewidth measurements were conducted as described previously.

B16 melanoma cells [1] = test: effect of swainsonine on B16 melanoma solid tumor growth; type: in vivo, C57Bl/6 mice; settings: for inhibition of B16 growth at other doses: 1.0, 0.01 and 0.001 μg Sw
Method: The B16 melanoma cells were purchased from American Type Culture Collection (ATCC). They were maintained in complete α-MEM (SIGMA) (with 10% fetal calf serum (FCS) (Sigma), 100 U/ml penicillin (Sigma), 100 μg/ml streptomycin (Sigma) and 2 mM glutamine (Sigma)) in Corning 75 cm^2 straight necked flasks (T75) and grown with 5.5% CO2 in air with 95% humidity in a New Brunswick Scientific water jacketed incubator. […] They were harvested using 1× Trypsin-EDTA (Sigma), centrifuged at 100×g with a Beckman TJ6 centrifuge, counted using a hemocytometer and stained with trypan blue to determine viability. The cells used for injection into the mice were washed three times in phosphate buffered saline (PBS), counted and resuspended in PBS at a final concentration of 6×10^6 cells per ml.
The swainsonine, purchased from Boehringer Mannheim, was initially suspended in PBS at 100 μg/ml. Subsequent dilutions utilized in the following experiments were made in PBS.
Fifteen female C57Bl/6 mice (6 weeks old, from Harlan Sprague Dawley Laboratories) were treated 3 times per week on a Monday-Wednesday-Friday (MWF) schedule for three weeks prior to the injection of the 6×10^5 B16 melanoma cells. The treatment consisted of 0.1 ml (total volume) intraperitoneal injections of swainsonine in the mornings before 9:00 am. The treatment groups were as follows:
The MWF treatment with the swainsonine continued after the tumor cell injection until the termination of the study. Once the tumor was palpable, electronic calipers were used to measure the length (l), width (w) and depth (d) of the tumor. The volume of the tumor was then determined by V=πr^2 ×d, with the assumption that the tumor is a […], then r=(l+w)/4.

B16 melanoma cells [2] = test: effect of swainsonine on cytotoxic T-lymphocytes (51Cr cytotoxicity assay); type: in vivo, mouse
Method: The cytotoxicity assay used two targets: YAC-1, for natural killer cell targets and B16 melanoma cells, for cytolytic T-cell targets. The YAC-1 cells were labelled in GKN (glucose/KCl/NaCl) with ^51 Cr (NEN-DuPont,400-1200 Ci/g activity) for 60 min. The B16's were ^51 Cr labelled in complete α-MEM media for 60 min. Both targets were washed twice through whole fetal calf serum to remove damaged and dead cells and then suspended in complete RPMI at a final concentration of 1×10^5 cells/ml. The spleen cells (effector cells) were plated in round bottom 96 well trays starting at 1×10^7 cells/ml (100μl/well), using a halving dilution that provided splenocyte concentrations of 10^6, 5×10^5, 2.5×10^5, 1.25×10^5, 6.25×10^4 and 3.125×10^4, all done in triplicate. The target cells were added at 1×10^4 cell/100 μl/well; this gave an effector:target cell ratio ranging from 100:1 to 3:1. Controls included spontaneous ^51 Cr release and 100% lysis (10% triton treatment). The trays were centrifuged at 50×g for 5 min. and incubated in a CO2 incubator at 37° C. for 16 hours. The trays were spun again at 50×g for 5 minutes and 100 μl removed from each well for counting. A Packard gamma counter (United Technologies) was used for counting. Each sample was counted for 1 min. giving a 5% counting efficiency. The following equation was used to determine percent lysis. [formula]
The effector:target ratios were then plotted against percent lysis and a simple line equation was determined for each treatment group. The slope of this line was then used to determine the total effector kill efficiency.
The ^51 Cr cytotoxicity assay was also run with the B16 melanoma cells as the target and the splenocytes from the same mice as above as the effector cells. The baseline mice (no tumor/no Sw) and the control mice (tumor/no Sw) had very similar line shapes and slopes. There were significant differences (p=0.03) between the presence and absence of tumor (see Table in FIG. 68).

antibody formation = settings: in words, cited from earlier work
B16F10 cells = settings: Sw in drinking water (3 μg/ml) for 24 hours; cited from earlier work
IL-2R; LAK = settings: in words, cited from earlier work
α-mannosidase II = settings: in words; cited from earlier work
solid tumor models = settings: in words; cited from earlier work

O[C@H]1[C@H]2[C@H](O)CCCN2C[C@H]1O [Swainsonine, swainsonine]
T-2* linewidth (canine glioma (CG) cells; 233 K, four weeks of treatment, mean ± SD): 300 ± 8 | linewidth change versus controls (canine glioma (CG) cells; after one treatment / one week, in words, listed as Sw): significant (P>0.01]) decreases in linewidth; also recorded: significantly (P>0.01) different from those of the untreated controls | linewidth after treatment withdrawal versus control (canine glioma (CG) cells; four weeks treatment, one week withdrawal, in words): still significantly different from control values | delay of tumor growth onset (B16 melanoma cells [1]; 0.1 μg Sw): two | reduction of tumor size compared to controls (B16 melanoma cells [1]; 0.1 μg Sw, day 9, p=0.03): 74% | reduction of tumor size compared to controls (B16 melanoma cells [1]; 0.1 μg Sw, day 11, p=0.003): 68% | day of palpable tumors (B16 melanoma cells [1]; 0.1 μg Sw, control day 5): 7 days | day of measurable tumors (B16 melanoma cells [1]; 0.1 μg Sw, control day 7): 9 days | tumor growth at 1.0 μg (B16 melanoma cells [1]; 1.0 μg Sw, in words): enhanced growth | inhibition of B16 growth at other doses (B16 melanoma cells [1]; in words): no effect on delaying growth | inhibition of B16 growth at other doses (B16 melanoma cells [1]; in words, listed as Sw): less effective at inhibiting the B16 growth (p<0.5) | increase in line slope (kill efficiency) (B16 melanoma cells [2]; 0.1 μg Sw alone): 104% | CTL activity before exposure to specific target (B16 melanoma cells [2]; 0.1 μg Sw for 3 weeks, in words): significant increase in the CTL activity | convertability from NK to CTL (B16 melanoma cells [2]; 0.1 μg Sw with tumors, tumor control 17.5%): 39% | antibody production after immunosuppressive factor (antibody formation; Sw 3.7-100 mg/kg i.p. 5 days): return to normal levels of antibody production | PFC numbers, Sw alone (antibody formation): no changes in PFC numbers | stimulation of CTL (B16F10 cells): no stimulation of CTL | lymphoid IL-2R expression and IL-2 induced proliferation (IL-2R; LAK; following mitogenic stimulation): augmented lymphoid IL-2R expression and IL-2 induced proliferation | LAK induction (IL-2R; LAK; normally sub-optimal stimulation doses): augmented the LAK induction | α-mannosidase II (α-mannosidase II): inhibition of α-mannosidase II | growth of other solid tumors (solid tumor models): delay growth in several other solid tumor models
